{"source": "patent US11351137B2", "about": "“Composition and method for dual targeting in treatment of neuroendocrine tumors” (NANOPHARMACEUTICALS LLC, priority 2018, dated 2022)", "key": {"[1]": {"target": "purified integrin αvβ3 receptor (Homo sapiens, UniProt P05106+P06756)", "sequence (P06756 31-889 limits assumed)": "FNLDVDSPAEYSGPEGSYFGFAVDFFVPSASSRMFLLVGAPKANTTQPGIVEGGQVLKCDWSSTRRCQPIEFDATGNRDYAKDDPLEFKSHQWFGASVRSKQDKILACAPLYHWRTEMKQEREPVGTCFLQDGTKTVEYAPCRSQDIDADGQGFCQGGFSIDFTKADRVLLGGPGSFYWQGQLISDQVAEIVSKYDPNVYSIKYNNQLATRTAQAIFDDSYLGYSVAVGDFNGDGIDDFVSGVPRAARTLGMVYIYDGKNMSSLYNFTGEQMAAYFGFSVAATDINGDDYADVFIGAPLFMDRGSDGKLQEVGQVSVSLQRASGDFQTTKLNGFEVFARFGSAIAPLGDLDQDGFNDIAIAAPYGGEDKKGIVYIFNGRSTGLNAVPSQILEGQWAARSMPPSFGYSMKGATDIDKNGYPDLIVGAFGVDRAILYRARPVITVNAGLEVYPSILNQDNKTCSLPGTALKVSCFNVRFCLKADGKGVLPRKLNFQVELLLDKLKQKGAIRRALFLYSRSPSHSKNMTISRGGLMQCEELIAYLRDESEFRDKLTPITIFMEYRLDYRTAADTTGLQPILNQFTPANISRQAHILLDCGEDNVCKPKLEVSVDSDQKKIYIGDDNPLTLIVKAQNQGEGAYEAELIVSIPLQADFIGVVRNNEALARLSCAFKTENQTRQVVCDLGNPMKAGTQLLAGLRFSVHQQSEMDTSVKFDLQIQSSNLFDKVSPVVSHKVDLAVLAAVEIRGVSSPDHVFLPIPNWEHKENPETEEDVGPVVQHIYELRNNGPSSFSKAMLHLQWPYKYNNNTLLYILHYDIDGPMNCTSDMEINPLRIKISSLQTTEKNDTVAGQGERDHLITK", "sequence (P06756 891-1048 partner limits assumed)": "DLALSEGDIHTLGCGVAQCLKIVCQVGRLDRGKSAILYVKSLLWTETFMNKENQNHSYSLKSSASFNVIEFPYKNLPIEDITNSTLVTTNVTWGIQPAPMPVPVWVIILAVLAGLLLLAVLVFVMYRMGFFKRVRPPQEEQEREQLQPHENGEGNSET", "sequence (P05106 27-788)": "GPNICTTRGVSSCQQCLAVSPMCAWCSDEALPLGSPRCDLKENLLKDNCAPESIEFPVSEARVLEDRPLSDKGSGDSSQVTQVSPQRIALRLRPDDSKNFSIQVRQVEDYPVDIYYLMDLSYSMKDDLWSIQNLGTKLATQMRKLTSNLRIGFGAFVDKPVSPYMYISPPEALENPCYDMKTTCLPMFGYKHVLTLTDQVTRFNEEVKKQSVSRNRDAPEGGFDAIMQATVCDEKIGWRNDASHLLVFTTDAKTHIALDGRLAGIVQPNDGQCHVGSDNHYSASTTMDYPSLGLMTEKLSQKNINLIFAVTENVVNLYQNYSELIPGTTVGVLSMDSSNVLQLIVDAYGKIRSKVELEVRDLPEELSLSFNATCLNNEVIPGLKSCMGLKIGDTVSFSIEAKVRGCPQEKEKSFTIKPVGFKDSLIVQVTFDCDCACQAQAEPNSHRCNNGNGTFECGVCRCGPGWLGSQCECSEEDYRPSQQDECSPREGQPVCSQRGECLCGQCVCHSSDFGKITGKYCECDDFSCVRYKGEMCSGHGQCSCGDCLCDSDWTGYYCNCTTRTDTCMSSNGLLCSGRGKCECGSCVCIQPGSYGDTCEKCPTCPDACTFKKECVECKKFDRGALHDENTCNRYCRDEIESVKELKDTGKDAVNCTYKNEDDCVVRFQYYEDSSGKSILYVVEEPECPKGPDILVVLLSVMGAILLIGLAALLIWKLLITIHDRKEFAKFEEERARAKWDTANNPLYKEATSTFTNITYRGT", "experiment": "Binding affinity towards purified integrin αvβ3 receptor"}, "[2]": {"test_system": "neuroblastoma SKNF1 cells", "experiment": "Compositions 7a, 7b and 15 on subcutaneously implanted SKNF1 neuroblastoma tumor in female nude mice", "format": "in vivo", "description": "The efficacy of Compositions 7a (dI-BG-P-TAT), 7b (dM-BG-P-TAT), and 15 (BG-P-PAT) were tested using neuroblastoma SKNF1 cells implanted into nude female mice similar to the examples discussed above for Composition 300 (BG-P-TAT).\nFurther, to compare the histopathological changes in tumors of untreated and treated groups, tumors were harvested, fixed, and stained with hematoxylin and eosin (H&E). Necrosis at low magnification of tumors from animals treated with compounds 7a, 7b, and 15 versus control is seen clearly as shown in Figure. […] On the other hand, tumors from the untreated group had mostly viable tumor cells. […]"}, "[3]": {"test_system": "neuroblastoma SKNF2 cells", "experiment": "Composition 300 dose response on subcutaneously implanted SKNF2 neuroblastoma tumor in female nude mice", "format": "in vivo", "conditions": "for tumor shrinkage (tumor weight) / tumor cell viability / tumor cell necrosis rate: 15 days; for tumor cell viability: control 70-75%", "description": "The efficacy of Composition 300 (BG-P-TAT) was tested using neuroblastoma SKNF2 cells implanted into nude female mice.\nFifteen (15) female nude mice were implanted with twice with 10^6 cells/implant. The SKNF2 cell line was used with subcutaneous xenografts.\nEight (8) days following implantation, the mice were divided into four groups receiving the following treatment for 15 days:\nFollowing fifteen (15) days of treatment, tumors were collected in order to evaluate histopathology, and the following results were collected: […]"}, "SKNF2 cell lines [4]": {"test_system": "SKNF2 cell lines", "experiment": "Comparative examples: BG, BG derivatives, TAT derivative and co-administration versus Composition 300 in mice implanted with SKNF2 cell lines", "format": "in vivo", "conditions": "for Percentage of Tumor Growth Suppression / Reduction of tumor viability: Dosage 3 mg/kg", "description": "FIGS. 12a and 12b shown the effect of the control and treatment with BG, BG derivatives, thyrointegrin antagonists such as TAT derivatives, and combinations (co-administration) thereof, versus Composition 300 (BG-P-TAT) on tumor cell necrosis of mice implanted with SKNF2 cell lines.\nFurther, even a combination treatment of two triazole tetrac derivatives in combination delivered subcutaneously daily for three (3) weeks at 3 mg/kg only achieves a reduction of 40-50% for tumor growth and tumor viability. Similar results are obtained with treatments using benzyl guanidine and benzyl guanidine derivatives.\nFor example, the graph of FIG. 12b includes the effect of a triazole tetrac derivative (referred to as TAT) on tumor weight when compared with a control group (phosphate-buffered saline “PBS”). The specific derivative tested was beta cyclodextrin triazole tetrac.\nAgain, beta cyclodextrin triazole tetrac was the tetrac derivative used.\nComposition 300 achieves approximately 80% reduction in tumor. Further, the viability of residual tumor was reduced by 80%."}, "[5]": {"test_system": "SKNF1 neuroblastoma tumors", "experiment": "Cy5 fluorescence imaging of subcutaneously implanted SKNF1 tumor in athymic female mice", "format": "in vivo", "conditions": "Cy5 labeled; 1-24 hours post-administration; compared with triazole tetrac derivative alone or benzyl guanidine derivative alone", "description": "Athymic female mice were implanted twice each with 10^6 cells/implant. The SKNF1 cell line was used with subcutaneous xenografts.\nGroup 1 consisted of three mice and were treated with PEG-TAT-dye (Cy5). Group 2 consisted of three mice and were treated with PEG-BG-dye (Cy5). Group 3 consisted of three mice and were treated with TAT-PEG-BG-dye (Cy5) wherein the TAT and BG were covalently linked with a PEG linker as compound 300. The treatment groups are shown below:\nFluorescence imaging (Cy5) was conducted 1 hour, 2 hours, 4 hours, 6 hours, and 24 hours post-administration. Imaging results are shown in FIGS. 13a and 13b, in which the tumor location is circled in yellow and the Cy5 dye appears as red."}, "SKNF2 cell lines [6]": {"test_system": "SKNF2 cell lines", "experiment": "Comparative examples: BG, BG derivatives, TAT derivative and co-administration versus Composition 300 in mice implanted with SKNF2 cell lines", "format": "in vivo", "conditions": "3 mg/kg subcutaneously daily for 15 days (FIGS. 12a, 12b)"}}, "note": "Entries after “also recorded” stand apart in the source; their conditions may differ."}
{"molecule": "N=C(N)NCc1ccc(OCCOCCOCCOCCOCCOCCOCCOCCN2CCN(CCCOc3c(I)cc(Oc4c(I)cc(CC(=O)O)cc4I)cc3I)CC2)cc1", "note": "[Composition 15]", "values": [{"measurement": "IC50", "setting": "[1]", "result": 0.3, "unit": "nM"}, {"measurement": "fold increase in binding affinity relative to BG-P-TAT", "setting": "[1]; αvβ3 binding", "result": "~30", "unit": "fold"}, {"measurement": "tumor volume over twenty days", "setting": "[2]; 3 mg/kg subcutaneously, 20 days, control rose from 175 mm^3 to 1000 mm^3", "result": "no substantial increase"}, {"measurement": "areas of necrosis, fibrosis and cell debris (H&E staining)", "setting": "[2]; 3 mg/kg, 20 days of treatment", "result": "approximately 98%"}, {"measurement": "decrease in tumor weight versus control", "setting": "[2]; 3 mg/kg, 20 days of treatment", "result": 90, "unit": "%"}]}
{"molecule": "N=C(N)NCc1ccc(OCCOCCOCCOCCOCCOCCOCCn2cc(COc3c(I)cc(Oc4c(I)cc(CC(=O)O)cc4I)cc3I)nn2)cc1", "note": "[Composition 300, 2-(4-(4-((1-(20-(4-(guanidinomethyl)phenoxy)-3,6,9,12,15,18-hexaoxaicosyl)-1H-1,2,3-triazol-4-yl)methoxy)-3,5-diiodophenoxy)-3,5-diiodophenyl)acetic acid]", "values": [{"measurement": "tumor shrinkage (tumor weight)", "setting": "[3]; 1 mg/kg daily", "result": 60, "unit": "%"}, {"measurement": "tumor cell viability", "setting": "[3]; 1 mg/kg daily", "result": 50, "unit": "%"}, {"measurement": "tumor cell necrosis rate", "setting": "[3]; 1 mg/kg", "result": "approximately 50%"}, {"measurement": "tumor shrinkage (tumor weight)", "setting": "[3]; 3 mg/kg daily", "result": 80, "unit": "%"}, {"measurement": "tumor cell viability", "setting": "[3]; 3 mg/kg daily", "result": 20}, {"measurement": "tumor cell necrosis rate", "setting": "[3]; 3 mg/kg", "result": "approximately 80%"}, {"measurement": "tumor shrinkage (tumor weight)", "setting": "[3]; 10 mg/kg daily", "result": 100, "unit": "%"}, {"measurement": "tumor cell viability", "setting": "[3]; 10 mg/kg daily", "result": 0.00, "unit": "%"}, {"measurement": "tumor volume after 15 days of treatment", "setting": "[3]; 10 mg/kg group, start approximately 825 mm^3, control rose to 1050 mm^3", "result": "~100", "unit": "mm^3"}, {"measurement": "tumor cell necrosis rate", "setting": "[3]; 10 mg/kg", "result": "~100", "unit": "%"}, {"measurement": "effect on animal body weight", "setting": "[3]; 1, 3 and 10 mg/kg subcutaneously daily for 15 days, versus control animals", "result": "no effect; also recorded: no significant changes"}, {"measurement": "cancer cell necrosis", "setting": "[3]; at the 3 and 10 mg/kg doses (FIG. 11 legend)", "result": "80-100%"}, {"measurement": "abnormal animal head movements (circling) seen in control mice", "setting": "[3]; treated mice, 1-10 mg/kg", "result": "disappearance"}, {"measurement": "tumor vasculature", "setting": "[3]; treatment groups 1-10 mg/kg versus control", "result": "clearly diminished"}, {"measurement": "reduction of viability of residual tumor", "setting": "SKNF2 cell lines [4]; 3 mg/kg", "result": 80, "unit": "%"}, {"measurement": "tumor weight shrinkage / reduction versus control (PBS)", "setting": "SKNF2 cell lines [4]; 3 mg/kg subcutaneously daily for 15 days (FIGS. 12a, 12b), listed as BG-P-TAT", "result": 80, "unit": "%"}, {"measurement": "Percentage of Tumor Growth Suppression", "setting": "SKNF2 cell lines [4]", "result": "80-90%"}, {"measurement": "Reduction of tumor viability", "setting": "SKNF2 cell lines [4]", "result": "80-90%"}, {"measurement": "retention time within the tumor (Cy5 fluorescence)", "setting": "[5]", "result": "marked improvement"}, {"measurement": "uptake into the SKNF1 neuroblastoma tumors (Cy5 fluorescence)", "setting": "[5]", "result": "marked improvement; also recorded: highest intensity accumulation"}, {"measurement": "IC50", "setting": "[1]", "result": 10.3, "unit": "nM"}]}
{"molecule": "beta cyclodextrin triazole tetrac [TAT]", "values": [{"measurement": "Percentage of Tumor Growth Suppression", "setting": "SKNF2 cell lines [4]", "result": "40-50%"}, {"measurement": "Reduction of tumor viability", "setting": "SKNF2 cell lines [4]", "result": "40-50%"}, {"measurement": "tumor weight shrinkage / reduction versus control (PBS)", "setting": "SKNF2 cell lines [6]", "result": "40-50%"}]}
{"molecule": "N=C(N)NCc1cccc([131I])c1", "note": "[MIBG, meta-iodobenzylguanidine]", "values": [{"measurement": "Percentage of Tumor Growth Suppression", "setting": "SKNF2 cell lines [4]", "result": "40-50%"}, {"measurement": "Reduction of tumor viability", "setting": "SKNF2 cell lines [4]", "result": "40-50%"}]}
{"molecule": "N=C(N)NCc1ccccc1", "note": "[BG, benzyl guanidine]", "values": [{"measurement": "Percentage of Tumor Growth Suppression", "setting": "SKNF2 cell lines [4]", "result": "40-50%"}, {"measurement": "Reduction of tumor viability", "setting": "SKNF2 cell lines [4]", "result": "40-50%"}]}
